Legend:
c-erbB-4 = target: T1, c-erbB-4 (Homo sapiens, UniProt Q15303); experiment: Substrate phosphorylation assay, c-erbB-4; type: biochemical; settings: recombinant intracellular domain, baculovirus expressed; ATP and peptide at Km; read-out: ErbB4 IC50
T1 construct: baculovirus expressed, recombinant constructs of the intracellular domains of c-erbB-2 and c-erbB-4; made in house
Procedure: The substrate phosphorylation assays use baculovirus expressed, recombinant constructs of the intracellular domains of c-erbB-2 and c-erbB-4 that are constitutively active and EGFr isolated from solubilised A431 cell membranes. The method measures the ability of the isolated enzymes to catalyse the transfer of the γ-phosphate from ATP onto tyrosine residues in a biotinylated synthetic peptide (Biotin-[…]. […] The reaction is stopped by the addition of EDTA (final concentration 0.15 mM) and a sample is transferred to a streptavidin-coated 96-well plate. The plate is washed and level of phosphotyrosine on the peptide is determined using a Europium-labelled antiphosphotyrosine antibody and quantified with a time-resolved fluorescence technique. The results are shown in Table 1 as the IC50 value in Micromolar ranges.

N87 cells = experiment: Methylene blue growth inhibition assay, N87; type: cell-based; settings: 72 h; human gastric tumor cell line, 3 days
Procedure: (§1) Human breast (BT474), head and neck (HN5) and gastric tumor (N87) cell lines were cultured in low glucose DMEM (Life Technologies 12320-032) containing 10% fetal bovine serum (FBS) at 37° C. in a humidified 10% CO2, 90% air incubator. The SV40 transformed human mammary epithelial cell line HB4a was transfected with either human H-ras cDNA (HB4a r4.2) or the human c-erbB2 cDNA (HB4a c5.2). The HB4a clones were cultured in RPMI containing 10% FBS, insulin (5 μg/ml), hydrocortisone (5 μg/ml), supplemented with the selection agent hygromycin B (50 μg/ml). Cells were harvested using trypsin/EDTA, counted using a haemocytometer, and plated in […] of the appropriate media, at the following densities, in a 96-well tissue culture plate (Falcon 3075): BT474 10,000 cells/well, HN5 3,000 cells/well, N87 10,000 cells/well, HB4a c5.2 3,000 cells/well, HB4a r4.2 3,000 cells/well. The next day, compounds were diluted in DMEM containing […] gentamicin, at twice the final required concentration, from 10 mM stock solutions in DMSO. […] of these dilutions were added to the […] of media currently on the cell plates. Medium containing 0.6% DMSO was added to control wells. Compounds diluted in DMEM were added to all cell lines, including the HB4a r4.2 and HB4a c5.2 cell lines. The final concentration of DMSO in all wells was 0.3%. Cells were incubated at 37° C., 10% CO2 for 3 days. Medium was removed by aspiration. Cell biomass was estimated by staining cells with 100 μl per well methylene blue (Sigma M9140, 0.5% in 50:50 ethanol:water), and incubation at room temperature for at least 30 minutes. Stain was removed, and the plates rinsed under a gentle stream of water, and air-dried. To release stain from the cells 100 μl of solubilization solution was added (1% N-lauroyl sarcosine, Sodium salt, Sigma L5125, in PBS), and plates were shaken gently for about 30 minutes. Optical density at 620 nm was measured on a microplate reader. Percent inhibition of cell growth was calculated relative to vehicle treated control wells. Concentration of compound that inhibits 50% of cell growth (IC50) was interpolated using nonlinear regression (Levenberg-Marquardt) and the equation, y=Vmax*(1−(x/(K+x)))+Y2, where “K” was equal to the IC50.

[1] = target: T2, EGFr isolated from solubilised A431 cell membranes (Homo sapiens, UniProt P00533); experiment: Substrate phosphorylation assay, EGFr; type: biochemical; settings: ATP and peptide at Km
T2 construct: EGFr isolated from solubilised A431 cell membranes; endogenous in cells; host or cells: A431 cell membranes, solubilised
T2 sequence (P00533 25-1210): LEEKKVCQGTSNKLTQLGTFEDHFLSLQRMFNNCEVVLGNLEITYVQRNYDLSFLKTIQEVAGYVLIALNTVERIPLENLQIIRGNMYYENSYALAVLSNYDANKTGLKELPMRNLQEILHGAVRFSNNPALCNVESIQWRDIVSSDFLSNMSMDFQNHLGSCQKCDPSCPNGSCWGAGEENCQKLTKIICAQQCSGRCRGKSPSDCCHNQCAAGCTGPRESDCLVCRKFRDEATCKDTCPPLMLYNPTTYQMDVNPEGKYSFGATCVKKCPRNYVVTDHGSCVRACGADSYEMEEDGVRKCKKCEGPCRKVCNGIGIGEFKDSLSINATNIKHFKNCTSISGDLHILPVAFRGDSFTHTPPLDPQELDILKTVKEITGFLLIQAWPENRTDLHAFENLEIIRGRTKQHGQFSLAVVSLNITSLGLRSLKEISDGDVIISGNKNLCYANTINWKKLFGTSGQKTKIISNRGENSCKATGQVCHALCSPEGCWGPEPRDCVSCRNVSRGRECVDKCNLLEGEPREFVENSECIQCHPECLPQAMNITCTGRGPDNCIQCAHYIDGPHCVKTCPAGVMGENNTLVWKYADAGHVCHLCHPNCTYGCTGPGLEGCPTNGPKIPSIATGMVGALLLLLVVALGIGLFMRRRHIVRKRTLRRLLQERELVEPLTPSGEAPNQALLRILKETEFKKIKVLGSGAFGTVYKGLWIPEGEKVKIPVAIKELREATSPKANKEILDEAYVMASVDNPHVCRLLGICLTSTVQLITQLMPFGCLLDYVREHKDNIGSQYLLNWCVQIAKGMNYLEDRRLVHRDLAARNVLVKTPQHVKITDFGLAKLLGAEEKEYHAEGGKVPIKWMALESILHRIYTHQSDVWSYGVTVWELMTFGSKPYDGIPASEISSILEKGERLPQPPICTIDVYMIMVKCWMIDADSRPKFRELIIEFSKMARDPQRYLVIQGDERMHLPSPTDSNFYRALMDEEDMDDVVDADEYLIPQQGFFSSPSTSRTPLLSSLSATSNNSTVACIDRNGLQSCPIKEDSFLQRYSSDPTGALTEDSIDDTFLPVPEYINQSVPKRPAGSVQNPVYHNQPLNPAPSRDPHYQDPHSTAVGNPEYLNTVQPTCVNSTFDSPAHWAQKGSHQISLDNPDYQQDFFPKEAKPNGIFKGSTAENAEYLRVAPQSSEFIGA
Procedure: (§2) The substrate phosphorylation assays use baculovirus expressed, recombinant constructs of the intracellular domains of c-erbB-2 and c-erbB-4 that are constitutively active and EGFr isolated from solubilised A431 cell membranes. […] The reaction is stopped by the addition of EDTA (final concentration 0.15 mM) and a sample is transferred to a streptavidin-coated 96-well plate. The plate is washed and level of phosphotyrosine on the peptide is determined using a Europium-labelled antiphosphotyrosine antibody and quantified with a time-resolved fluorescence technique.

c-erbB-2 = target: T3, c-erbB-2 (Homo sapiens, UniProt P04626); experiment: Substrate phosphorylation assay, c-erbB-2; type: biochemical; settings: recombinant intracellular domain, baculovirus expressed; ATP and peptide at Km; read-out: ErbB2 IC50
T3 construct: baculovirus expressed, recombinant constructs of the intracellular domains of c-erbB-2 and c-erbB-4; made in house
T3 sequence (P04626 676-1255 limits assumed): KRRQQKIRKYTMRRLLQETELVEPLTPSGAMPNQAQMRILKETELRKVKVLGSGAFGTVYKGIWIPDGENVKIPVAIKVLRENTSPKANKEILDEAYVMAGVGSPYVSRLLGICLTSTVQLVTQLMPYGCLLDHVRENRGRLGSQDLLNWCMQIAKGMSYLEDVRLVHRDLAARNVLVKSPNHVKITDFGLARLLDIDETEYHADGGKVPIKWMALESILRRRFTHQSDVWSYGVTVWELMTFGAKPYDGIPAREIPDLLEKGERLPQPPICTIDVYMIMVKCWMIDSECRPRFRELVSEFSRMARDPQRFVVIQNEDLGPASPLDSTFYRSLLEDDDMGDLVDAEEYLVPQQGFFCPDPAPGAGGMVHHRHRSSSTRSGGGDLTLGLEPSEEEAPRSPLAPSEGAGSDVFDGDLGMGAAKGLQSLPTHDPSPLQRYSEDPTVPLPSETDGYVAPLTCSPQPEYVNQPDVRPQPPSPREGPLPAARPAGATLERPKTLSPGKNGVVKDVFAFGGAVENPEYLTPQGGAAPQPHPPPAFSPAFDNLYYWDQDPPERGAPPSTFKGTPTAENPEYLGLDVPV
Procedure: as §2, with “technique. The results are shown in Table 1 as the IC50 value in Micromolar ranges.” for “technique.”

HN5 cells = experiment: Methylene blue growth inhibition assay, HN5; type: cell-based; settings: HN5, 72 h; human head and neck tumor cell line, 3 days
Procedure: as §1

HB4a c5.2 cells = experiment: Methylene blue growth inhibition assay, HB4a c5.2; type: cell-based; settings: HB4a-C5.2, 72 h; human mammary epithelial line transfected with human c-erbB2 cDNA, 3 days; read-out: HB4a c5.2 IC50 (cell growth)
Procedure: as §1

BT474 cells = experiment: Methylene blue growth inhibition assay, BT474; type: cell-based; settings: BT-474, 72 h; human breast tumor cell line, 3 days
Procedure: as §1

T1 sequence (Q15303 676-1308 limits assumed): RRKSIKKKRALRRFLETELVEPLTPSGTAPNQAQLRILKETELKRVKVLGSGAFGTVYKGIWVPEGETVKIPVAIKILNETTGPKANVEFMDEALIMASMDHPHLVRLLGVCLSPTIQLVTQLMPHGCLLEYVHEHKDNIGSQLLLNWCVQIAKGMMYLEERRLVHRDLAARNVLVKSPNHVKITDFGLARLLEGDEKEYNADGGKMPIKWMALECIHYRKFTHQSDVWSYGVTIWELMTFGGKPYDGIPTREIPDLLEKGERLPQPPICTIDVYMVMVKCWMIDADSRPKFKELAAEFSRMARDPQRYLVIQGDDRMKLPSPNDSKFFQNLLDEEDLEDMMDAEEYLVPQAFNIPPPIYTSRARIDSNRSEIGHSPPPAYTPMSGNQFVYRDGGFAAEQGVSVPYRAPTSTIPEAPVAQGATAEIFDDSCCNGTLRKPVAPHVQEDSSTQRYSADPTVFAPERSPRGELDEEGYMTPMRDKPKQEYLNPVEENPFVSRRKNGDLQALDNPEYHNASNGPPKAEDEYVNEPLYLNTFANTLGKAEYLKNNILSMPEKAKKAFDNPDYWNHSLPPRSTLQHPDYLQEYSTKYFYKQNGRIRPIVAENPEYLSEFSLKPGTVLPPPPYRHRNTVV

IC50 (c-erbB-4) [nM] | IC50 [1] [nM] | IC50 (c-erbB-2) [nM] | IC50 (BT474 cells) [nM] | Structure (SMILES) | IC50 (N87 cells) [nM] | IC50 (HN5 cells) [nM] | IC50 (HB4a c5.2 cells) [nM]
1000 to 10000 | < 100 | < 100 | 100 to 1000 | O=S(=O)(CCOCc1ccc(-c2ccc3ncnc(Nc4ccc(OCc5cccc(F)c5)c(Cl)c4)c3c2)o1)c1ccccc1 [Example 3, N-{3-chloro-4-[(3-fluorobenzyl)oxy]phenyl}-6-(5-{[2-(phenylsulfonyl)ethoxy]methyl}-2-furyl)-4-quinazolinamine] | 100 to 1000 | 100 to 1000 | 100 to 1000
< 100 | < 100 | < 100 | 100 to 1000 | CCCN(CCS(C)(=O)=O)Cc1ccc(-c2ccc3ncnc(Nc4ccc(OCc5cccc(F)c5)c(Cl)c4)c3c2)o1 [Example 18, N-{3-chloro-4-[(3-fluorobenzyl)oxy]phenyl}-6-(5-{[[2-(methylsulfonyl)ethyl](propyl)amino]methyl}-2-furyl)-4-quinazolinamine] | 100 to 1000 | 100 to 1000 | 100 to 1000
100 to 1000 | < 100 | < 100 | 1000 to 10000 | C=CS(=O)(=O)CCOCc1ccc(-c2ccc3ncnc(Nc4ccc(OCc5cccc(F)c5)c(Cl)c4)c3c2)o1 [Example 14, N-{3-chloro-4-[(3-fluorobenzyl)oxy]phenyl}-6-(5-{[2-(vinylsulfonyl)ethoxy]methyl}-2-furyl)-4-quinazolinamine] | 1000 to 10000 | 1000 to 10000 | 1000 to 10000
100 to 1000 | – | < 100 | 100 to 1000 | CC(C)S(=O)(=O)CCNCc1ccc(-c2ccc3ncnc(Nc4ccc(OCc5cccc(F)c5)c(Cl)c4)c3c2)o1 [Example 19] | 100 to 1000 | – | 100 to 1000
100 to 1000 | – | 100 to 1000 | 100 to 1000 | CS(=O)(=O)CCN(Cc1ccccc1)Cc1ccc(-c2ccc3ncnc(Nc4ccc(OCc5cccc(F)c5)c(Cl)c4)c3c2)o1 [Example 16, 6-[5-({benzyl[2-(methylsulfonyl)ethyl]amino}methyl)-2-furyl]-N-{3-chloro-4-[(3-fluorobenzyl)oxy]phenyl}-4-quinazolinamine] | 100 to 1000 | 1000 to 10000 | 1000 to 10000
100 to 1000 | < 100 | < 100 | 100 to 1000 | Cn1ccnc1S(=O)(=O)CCNCc1ccc(-c2ccc3ncnc(Nc4ccc(OCc5cccc(F)c5)c(Cl)c4)c3c2)o1 [Example 2, (4-(3-Fluorobenzyloxy)-3-chlorophenyl)-(6-(2-((2-(2-N-methylimidazolyl)-sulphonyl-ethylamino)-methyl)-furan-2-yl)-quinazolin-4-yl)-amine] | 100 to 1000 | 100 to 1000 | 100 to 1000
1000 to 10000 | < 100 | < 100 | 100 to 1000 | CCCS(=O)(=O)CCNCc1ccc(-c2cc3c(Nc4ccc(OCc5cccc(F)c5)cc4)ncnc3cn2)o1 [Example 6] | 100 to 1000 | 100 to 1000 | 100 to 1000
100 to 1000 | < 100 | < 100 | 1000 to 10000 | CCCS(=O)(=O)CCNCc1ccc(-c2ccc3ncnc(Nc4ccc(OCc5cccc(F)c5)c(Cl)c4)c3c2)o1 [Example 7] | 1000 to 10000 | 1000 to 10000 | 1000 to 10000
100 to 1000 | < 100 | < 100 | < 100 | CS(=O)(=O)CCN(CC#N)Cc1ccc(-c2ccc3ncnc(Nc4ccc(OCc5cccc(F)c5)c(Cl)c4)c3c2)o1 [Example 15, 2-{{[5-(4-{3-chloro-4-[(3-fluorobenzyl)oxy]anilino}-6-quinazolinyl)-2-furyl]methyl}[2-(methylsulfonyl)ethyl]amino}acetonitrile] | 100 to 1000 | < 100 | 100 to 1000
1000 to 10000 | < 100 | < 100 | 1000 to 10000 | O=S(=O)(CCNCc1ccc(-c2ccc3ncnc(Nc4ccc(OCc5cccc(F)c5)c(Cl)c4)c3c2)o1)c1ccccn1 [Example 5] | 100 to 1000 | 100 to 1000 | 1000 to 10000
100 to 1000 | < 100 | < 100 | 100 to 1000 | CS(=O)(=O)CCOCc1ccc(-c2ccc3ncnc(Nc4ccc(OCc5cccc(F)c5)c(Cl)c4)c3c2)o1 [Example 13, N-{3-chloro-4-[(3-fluorobenzyl)oxy]phenyl}-6-(5-{[2-(methylsulfonyl)ethoxy]methyl}-2-furyl)-4-quinazolinamine] | 100 to 1000 | 100 to 1000 | 100 to 1000
100 to 1000 | < 100 | < 100 | 100 to 1000 | CCN(CCS(C)(=O)=O)Cc1ccc(-c2ccc3ncnc(Nc4ccc(OCc5cccc(F)c5)c(Cl)c4)c3c2)o1 [Example 17, N-{3-chloro-4-[(3-fluorobenzyl)oxy]phenyl}-6-[5-({ethyl[2-(methylsulfonyl)ethyl]amino}methyl)-2-furyl]-4-quinazolinamine] | 100 to 1000 | 100 to 1000 | 100 to 1000
1000 to 10000 | < 100 | < 100 | 100 to 1000 | CS(=O)(=O)CCNCCCc1ccc(-c2ccc3ncnc(Nc4ccc(OCc5ccccc5)c(Cl)c4)c3c2)o1 [Example 8] | 100 to 1000 | 100 to 1000 | 100 to 1000
